Data: patent US20210255193A1, “LYSINE REACTIVE PROBES AND USES THEREOF” (The Scripps Research Institute, priority 2017, published 2021)

Experiments:
Assay in all cases: competitive isoTOP-ABPP
Assay type in all cases: binding
[1] = biological target: T1, EHD1 EH domain-containing protein 1 (Homo sapiens, UniProt Q9H4M9)
T1 construct: endogenous in cells; host or cells: MDA-MB-231 (soluble fraction of lysate)
T1 sequence (Q9H4M9 1-534): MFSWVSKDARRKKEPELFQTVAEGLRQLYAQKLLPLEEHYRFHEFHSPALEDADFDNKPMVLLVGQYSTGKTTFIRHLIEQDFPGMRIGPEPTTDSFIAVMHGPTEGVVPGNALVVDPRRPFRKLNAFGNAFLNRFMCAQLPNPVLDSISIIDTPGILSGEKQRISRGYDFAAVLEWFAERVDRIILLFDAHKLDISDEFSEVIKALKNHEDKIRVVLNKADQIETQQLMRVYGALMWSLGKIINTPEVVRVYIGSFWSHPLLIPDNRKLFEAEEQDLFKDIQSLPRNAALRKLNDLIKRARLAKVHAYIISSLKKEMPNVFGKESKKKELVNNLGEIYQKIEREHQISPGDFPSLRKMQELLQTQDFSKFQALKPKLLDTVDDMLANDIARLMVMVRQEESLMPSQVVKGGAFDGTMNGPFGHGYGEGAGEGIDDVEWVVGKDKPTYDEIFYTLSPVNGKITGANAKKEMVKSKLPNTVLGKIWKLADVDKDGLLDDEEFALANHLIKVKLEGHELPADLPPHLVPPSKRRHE
Procedure, shortened: (§1)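 Competition format: fragment (50 μM activated ester, 100 μM guanidinylating agent) versus vehicle in lysate, then lysine probe STP-alkyne at 0.1 mM for 1 h. Quantitation by light/heavy TEV-tag MS1 peak areas, reported as R.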

[2] = biological target: T2, PTGR1 Prostaglandin reductase 1 (Homo sapiens, UniProt Q14914)
T2 construct: isoTOP-ABPP experiments performed in cell lysates (in vitro); endogenous in cells; host or cells: soluble proteome of human cancer cell lines (MDA-MB-231; Ramos and Jurkat also prepared)
Procedure, shortened: as §1

[3] = biological target: T3, REEP5 Receptor expression-enhancing protein 5 (Homo sapiens, UniProt Q00765)
T3 construct: isoTOP-ABPP experiments performed in cell lysates (in vitro); endogenous in cells; host or cells: soluble proteome of human cancer cell lines (MDA-MB-231, Ramos, Jurkat)
Procedure, shortened: as §1

[4] = biological target: T4, OAT Ornithine aminotransferase, mitochondrial (Homo sapiens, UniProt P04181); settings: for isoTOP-ABPP reactivity ratio at lysine P04181_K66: 50 uM, 231 sol, in vitro
T4 construct: isoTOP-ABPP experiments performed in cell lysates (in vitro); endogenous in cells; host or cells: MDA-MB-231 soluble lysate
T4 sequence (P04181 26-439): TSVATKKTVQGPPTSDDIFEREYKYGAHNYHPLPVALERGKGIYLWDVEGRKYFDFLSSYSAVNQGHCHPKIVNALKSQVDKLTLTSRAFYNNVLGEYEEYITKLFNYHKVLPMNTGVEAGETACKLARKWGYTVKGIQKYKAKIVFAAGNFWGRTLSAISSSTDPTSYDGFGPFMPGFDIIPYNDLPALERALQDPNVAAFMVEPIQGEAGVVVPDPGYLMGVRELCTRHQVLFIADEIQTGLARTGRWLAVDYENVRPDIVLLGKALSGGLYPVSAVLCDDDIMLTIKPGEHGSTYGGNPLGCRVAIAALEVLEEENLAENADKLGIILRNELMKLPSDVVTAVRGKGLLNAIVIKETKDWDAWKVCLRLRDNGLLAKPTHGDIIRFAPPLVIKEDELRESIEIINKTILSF
Procedure, shortened: as §1

[5] = biological target: T5, F3 Tissue factor (Homo sapiens, UniProt P13726); settings: for isoTOP-ABPP ratio (R) at liganded lysine P13726_K279: 50 uM, in vitro, sol, 231
T5 construct: isoTOP-ABPP experiments performed in cell lysates (in vitro); endogenous in cells; host or cells: soluble proteome of human cancer cell lines (MDA-MB-231; Ramos and Jurkat also prepared)
Procedure, shortened: as §1

T5 sequence (P13726 33-295): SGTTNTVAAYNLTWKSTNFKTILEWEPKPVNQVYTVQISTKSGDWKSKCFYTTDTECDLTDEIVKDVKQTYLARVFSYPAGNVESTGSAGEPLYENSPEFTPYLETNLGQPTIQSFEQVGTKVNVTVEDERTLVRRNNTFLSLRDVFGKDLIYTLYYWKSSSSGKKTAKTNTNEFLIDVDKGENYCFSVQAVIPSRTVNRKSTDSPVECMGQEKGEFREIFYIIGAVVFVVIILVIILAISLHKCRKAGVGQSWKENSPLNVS
T3 sequence (Q00765 whole entry): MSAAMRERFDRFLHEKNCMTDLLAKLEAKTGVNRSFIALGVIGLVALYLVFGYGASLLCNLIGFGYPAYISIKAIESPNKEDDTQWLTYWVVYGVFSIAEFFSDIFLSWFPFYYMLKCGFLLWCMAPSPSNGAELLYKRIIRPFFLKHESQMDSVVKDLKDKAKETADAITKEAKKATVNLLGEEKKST
T2 sequence (Q14914 whole entry): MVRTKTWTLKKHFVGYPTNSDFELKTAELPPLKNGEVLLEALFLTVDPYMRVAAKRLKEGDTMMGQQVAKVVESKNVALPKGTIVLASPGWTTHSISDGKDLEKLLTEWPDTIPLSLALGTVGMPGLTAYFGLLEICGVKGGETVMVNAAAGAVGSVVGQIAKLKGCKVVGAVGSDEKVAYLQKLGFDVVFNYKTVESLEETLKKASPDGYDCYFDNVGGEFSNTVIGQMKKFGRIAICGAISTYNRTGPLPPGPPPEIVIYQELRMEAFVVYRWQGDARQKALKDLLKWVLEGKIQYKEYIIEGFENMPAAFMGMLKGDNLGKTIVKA

Structure (SMILES): O=C(CCc1cn(-c2ccccc2)nc1-c1ccccc1)Oc1c(F)c(F)c(F)c(F)c1F [fragment 19, Pentafluorophenyl 3-(1,3-diphenyl-1H-pyrazol-4-yl)propanoate]
- R value (DMSO/fragment) for probe 1 labeling ([1]; Q9H4M9_K511, 50 uM, 231 sol, in vitro): 0.8

Structure (SMILES): O=C(Oc1c(F)c(F)c(F)c(F)c1F)C(c1ccccc1)c1ccccc1 [fragment 20, Pentafluorophenyl 2,2-diphenylacetate]
- R value (DMSO/fragment) for probe 1 labeling ([2]; Q14914_K194, 50 uM, 231 sol, in vitro): 1.6

Structure (SMILES): Cn1cc(CC(=O)Oc2c(F)c(F)c(F)c(F)c2F)c2ccccc21 [fragment 22, Pentafluorophenyl 2-(1-methyl-1H-indol-3-yl)acetate]
- R value (DMSO/fragment) for probe 1 labeling ([3]; Q00765_K147, 50 uM, 231 sol, in vitro): 4.8

Structure (SMILES): O=C(Oc1c(F)c(F)c(F)c(F)c1F)C1CCN(C(=O)OCc2ccccc2)CC1 [fragment 24, 1-Benzyl 4-(pentafluorophenyl) piperidine-1,4-dicarboxylate]
- isoTOP-ABPP reactivity ratio at lysine P04181_K66 [4]: 0.6

Structure (SMILES): O=C(Oc1ccc([N+](=O)[O-])cc1[N+](=O)[O-])C(c1ccccc1)c1ccccc1 [fragment 30, 2,4-Dinitrophenyl 2,2-diphenylacetate]
- isoTOP-ABPP reactivity ratio at lysine Q00765_K147 ([3]; 50 uM, 231 sol, in vitro): 20.0
- isoTOP-ABPP reactivity ratio at lysine Q9H4M9_K511 ([1]; 50 uM, 231 sol, in vitro): 0.9

Structure (SMILES): O=C(Oc1ccc([N+](=O)[O-])cc1[N+](=O)[O-])c1cc(C(F)(F)F)cc(C(F)(F)F)c1 [fragment 31, 2,4-Dinitrophenyl 3,5-bis(trifluoromethyl)benzoate]
- isoTOP-ABPP reactivity ratio at lysine Q00765_K147 ([3]; 50 uM, 231 sol, in vitro): 3.0

Structure (SMILES): Cn1cc(CC(=O)Oc2ccc([N+](=O)[O-])cc2[N+](=O)[O-])c2ccccc21 [fragment 32, 2,4-Dinitrophenyl 2-(1-methyl-1H-indol-3-yl)acetate]
- isoTOP-ABPP reactivity ratio at lysine Q9H4M9_K511 ([1]; 50 uM, 231 sol, in vitro): 1.2
- isoTOP-ABPP reactivity ratio at lysine P04181_K66 [4]: 9.3

Structure (SMILES): COc1cc(CCC(=O)Oc2ccc([N+](=O)[O-])cc2[N+](=O)[O-])cc(OC)c1OC [fragment 33, 2,4-Dinitrophenyl 3-(3,4,5-trimethoxyphenyl)propanoate]
- isoTOP-ABPP reactivity ratio at lysine P04181_K66 [4]: 1.0

Structure (SMILES): O=C(CCc1coc2cc(F)ccc2c1=O)Oc1ccc([N+](=O)[O-])cc1[N+](=O)[O-] [fragment 36, 2,4-Dinitrophenyl 3-(7-fluoro-4-oxo-4H-chromen-3-yl)propanoate]
- isoTOP-ABPP ratio (R) at liganded lysine Q14914_K194 ([2]; 50 uM, in vitro, sol, 231): 1.7

Structure (SMILES): O=C(Oc1ccc([N+](=O)[O-])cc1[N+](=O)[O-])c1ccc(Oc2ccccc2)cc1 [fragment 39, 2,4-Dinitrophenyl 4-phenoxybenzoate]
- isoTOP-ABPP ratio (R) at liganded lysine Q00765_K147 ([3]; 50 uM, in vitro, sol, 231): 1.2
- isoTOP-ABPP ratio (R) at liganded lysine P13726_K279 [5]: 1.8

Structure (SMILES): CC(=O)Oc1ccc([N+](=O)[O-])cc1[N+](=O)[O-] [fragment 43, 2,4-Dinitrophenyl acetate]
- isoTOP-ABPP ratio (R) at liganded lysine Q9H4M9_K511 ([1]; 50 uM, in vitro, sol, 231): 20.0
- isoTOP-ABPP ratio (R) at liganded lysine P13726_K279 [5]: 1.1

Structure (SMILES): N#Cc1ccc(C(=O)Oc2ccc([N+](=O)[O-])cc2[N+](=O)[O-])cc1 [fragment 44, 2,4-Dinitrophenyl 4-cyanobenzoate]
- isoTOP-ABPP ratio, lysine P13726_K279 ([5]; 50 uM_231_sol_in vitro): 1.1

Structure (SMILES): O=C(CCc1ccc2c(c1)OCO2)Oc1ccc([N+](=O)[O-])cc1[N+](=O)[O-] [fragment 45, 2,4-Dinitrophenyl 3-(benzo[d][1,3]dioxol-5-yl)propanoate]
- isoTOP-ABPP ratio, lysine Q14914_K194 ([2]; 50 uM_231_sol_in vitro): 5.5
- isoTOP-ABPP ratio, lysine Q00765_K147 ([3]; 50 uM_231_sol_in vitro): 2.7
- isoTOP-ABPP ratio, lysine P13726_K279 ([5]; 50 uM_231_sol_in vitro): 4.2

Structure (SMILES): O=C(Oc1c(F)c(F)c(C(F)(F)F)c(F)c1F)c1cc(C(F)(F)F)cc(C(F)(F)F)c1 [fragment 47, 2,3,5,6-Tetrafluoro-4-(trifluoromethyl)phenyl 3,5-bis(trifluoromethyl)benzoate]
- isoTOP-ABPP ratio, lysine Q9H4M9_K511 ([1]; 50 uM_231_sol_in vitro): 20.0

Structure (SMILES): COC(=O)NC(=NC(=O)OCC1c2ccccc2-c2ccccc21)n1cccn1 [fragment 49, N-Methoxycarbonyl-N′-9-fluorenylmethoxycarbonyl-pyrazole-1-carboxamidine]
- isoTOP-ABPP ratio, lysine Q14914_K194 ([2]; 100 uM_231_sol_in vitro): 1.3

Structure (SMILES): CC(C)(C)OC(=O)N=C(NC(=O)OC(C)(C)C)n1cccn1 [fragment 50, reference compound]
- isoTOP-ABPP ratio, lysine Q14914_K194 ([2]; 100 uM_231_sol_in vitro): 1.2
- isoTOP-ABPP ratio, lysine P04181_K66 ([4]; 100 uM_231_sol_in vitro): 9.9
- isoTOP-ABPP ratio, lysine P13726_K279 ([5]; 100 uM_231_sol_in vitro): 1.0
